PMC7445415 (2020)

Assays:
[1] = tested on: poly(A)-poly(U) (RNA, polymer) A/U; test: UV melting, 260 nm; details: Na+ (sodium cacodylate, I = 0.05 M); cacodylate pH 5.0; r = [NDI]/[polynucleotide] = 0.3; per base
[2] = tested on: poly(dA-dT)2 (DNA, polymer) AT; test: UV melting, 260 nm; details: Na+ (sodium cacodylate, I = 0.05 M); cacodylate pH 5.0; r = [NDI]/[polynucleotide] = 0.3; per base
[3] = tested on: poly(A)-poly(U) (RNA, polymer) A/U; test: ITC, one set of sites; details: Na+ (sodium cacodylate, I = 0.05 M); cacodylate pH 5.0, 298 K (293 K in Experimental); n fixed 0.2; polynucleotide as nucleobases; per base
[4] = tested on: poly(dG-dC)2 (DNA, polymer) GC; test: ITC, one set of sites; details: Na+ (sodium cacodylate, I = 0.05 M); cacodylate pH 5.0, 298 K (293 K in Experimental); n fixed 0.2; polynucleotide as nucleobases; per base
[5] = tested on: poly(dA-dT)2 (DNA, polymer) AT; test: fluorescence titration, Scatchard fit; details: Na+ (sodium cacodylate, I = 0.05 M); cacodylate pH 5.0, 25 °C; 1 µM compound; n fixed 0.2; polynucleotide as nucleobases; per base
[6] = tested on: poly(dG-dC)2 (DNA, polymer) GC; test: fluorescence titration, Scatchard fit; details: Na+ (sodium cacodylate, I = 0.05 M); cacodylate pH 5.0, 25 °C; 1 µM compound; n fixed 0.2; polynucleotide as nucleobases; per base
[7] = tested on: poly(A)-poly(U) (RNA, polymer) A/U; test: fluorescence titration, Scatchard fit; details: Na+ (sodium cacodylate, I = 0.05 M); cacodylate pH 5.0, 25 °C; 1 µM compound; n fixed 0.2; polynucleotide as nucleobases; per base
[8] = tested on: poly(dA-dT)2 (DNA, polymer) AT; test: ITC, one set of sites; details: Na+ (sodium cacodylate, I = 0.05 M); cacodylate pH 5.0, 298 K (293 K in Experimental); n fixed 0.2; polynucleotide as nucleobases; per base

Structure (SMILES) | ∆Tm [1] | ∆Tm [2] | logKs [3] | logKs [4] | logKs [5] | logKs [6] | logKs [7] | logKs [8]
C[N+](C)(C)CCCN1C(=O)c2cc(NCC[N+](C)(C)C)c3c4c(cc(Cl)c(c24)C1=O)C(=O)N(CCC[N+](C)(C)C)C3=O | +30.3 ± 0.5 °C | +35.4 ± 0.5 °C | 6.7 | 6.5 | 6.6 | 6.4 | 6.2 | 6.4
C[N+](C)(C)CCCN1C(=O)c2cc(NC[C@H](N)C(=O)O)c3c4c(cc(Cl)c(c24)C1=O)C(=O)N(CCC[N+](C)(C)C)C3=O | +17.5 ± 0.5 °C | +21.6 ± 0.5 °C | 5.9 | 6.7 | 6.0 | 7.2 | 6.0 | 6.3
C[N+](C)(C)CCCN1C(=O)c2cc(NCCCC[C@H](N)C(=O)O)c3c4c(cc(Cl)c(c24)C1=O)C(=O)N(CCC[N+](C)(C)C)C3=O | +25.1 ± 0.5 °C | +28.2 ± 0.5 °C | 6.6 | 6.7 | 6.1 | 6.6 | 6.4 | 6.8
